IC50 data for 2 compounds are collected here from BindingDB's records for doi:10.1016/0960-894X(95)00361-V (Sphinx Pharmaceuticals, 1995).

What all share (experiment): PKC assay
For assay [1], the target named is Protein kinase C eta type (Homo sapiens, UniProt P24723). Here is the method:
(§1) The activity of PKC, activated by phosphatidylerine and Ca2+, is measured by its ability to transfer phosphate from [gamma-32P]ATP to lysine-rich histone.

For assay [2], the target named is Protein kinase C delta type (Homo sapiens, UniProt Q05655). How it is done:
as §1

In assay [3] the target is T1, Protein kinase C epsilon type (Homo sapiens, UniProt Q02156).
T1 sequence (Q02156 whole entry): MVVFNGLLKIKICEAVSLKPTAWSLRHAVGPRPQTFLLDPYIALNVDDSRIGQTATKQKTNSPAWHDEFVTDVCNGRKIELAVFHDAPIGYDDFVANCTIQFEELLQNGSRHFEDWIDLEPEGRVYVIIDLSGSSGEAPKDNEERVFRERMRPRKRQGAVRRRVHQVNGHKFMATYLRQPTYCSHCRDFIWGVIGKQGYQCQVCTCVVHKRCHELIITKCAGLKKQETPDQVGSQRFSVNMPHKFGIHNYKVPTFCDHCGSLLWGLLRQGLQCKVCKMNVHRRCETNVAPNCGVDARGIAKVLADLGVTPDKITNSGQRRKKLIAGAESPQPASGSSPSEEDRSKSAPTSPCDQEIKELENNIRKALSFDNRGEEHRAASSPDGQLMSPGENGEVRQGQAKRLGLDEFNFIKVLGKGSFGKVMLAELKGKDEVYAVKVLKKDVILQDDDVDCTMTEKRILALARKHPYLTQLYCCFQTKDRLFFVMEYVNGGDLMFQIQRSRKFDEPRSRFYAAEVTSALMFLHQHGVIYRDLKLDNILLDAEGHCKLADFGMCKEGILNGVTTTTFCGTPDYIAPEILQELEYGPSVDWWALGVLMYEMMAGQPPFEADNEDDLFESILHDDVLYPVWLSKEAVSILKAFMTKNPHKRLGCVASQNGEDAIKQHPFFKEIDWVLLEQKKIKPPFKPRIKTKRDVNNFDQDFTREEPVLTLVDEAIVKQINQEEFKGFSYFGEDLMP
How it is done:
as §1

Assay [4] deals with Protein kinase C alpha type (Homo sapiens, UniProt P17252). Here is the method: as §1
Assay [5] has as its target Protein kinase C beta type (Homo sapiens, UniProt P05771). Here is the method: as §1

The structures appear in SMILES notation.

Chain of Protein kinase C eta type (P24723 whole entry): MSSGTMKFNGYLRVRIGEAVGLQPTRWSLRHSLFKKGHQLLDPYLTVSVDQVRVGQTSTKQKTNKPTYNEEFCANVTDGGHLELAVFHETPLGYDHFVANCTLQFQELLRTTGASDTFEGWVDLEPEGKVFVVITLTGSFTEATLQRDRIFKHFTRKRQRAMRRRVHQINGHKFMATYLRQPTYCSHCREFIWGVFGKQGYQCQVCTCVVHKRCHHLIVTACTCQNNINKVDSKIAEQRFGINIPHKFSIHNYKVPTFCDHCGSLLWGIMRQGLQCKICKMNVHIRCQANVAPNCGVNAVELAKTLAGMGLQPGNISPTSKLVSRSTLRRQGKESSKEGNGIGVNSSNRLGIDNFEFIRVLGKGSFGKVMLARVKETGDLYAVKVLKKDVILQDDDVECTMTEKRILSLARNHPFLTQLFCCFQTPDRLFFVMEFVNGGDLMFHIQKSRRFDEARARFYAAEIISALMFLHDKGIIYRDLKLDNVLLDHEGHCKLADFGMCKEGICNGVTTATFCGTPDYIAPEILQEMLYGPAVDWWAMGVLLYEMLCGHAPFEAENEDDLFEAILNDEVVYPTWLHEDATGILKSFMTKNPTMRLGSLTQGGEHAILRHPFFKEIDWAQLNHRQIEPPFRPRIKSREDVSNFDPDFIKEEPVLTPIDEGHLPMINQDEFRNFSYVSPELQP
Chain of Protein kinase C beta type (P05771 whole entry): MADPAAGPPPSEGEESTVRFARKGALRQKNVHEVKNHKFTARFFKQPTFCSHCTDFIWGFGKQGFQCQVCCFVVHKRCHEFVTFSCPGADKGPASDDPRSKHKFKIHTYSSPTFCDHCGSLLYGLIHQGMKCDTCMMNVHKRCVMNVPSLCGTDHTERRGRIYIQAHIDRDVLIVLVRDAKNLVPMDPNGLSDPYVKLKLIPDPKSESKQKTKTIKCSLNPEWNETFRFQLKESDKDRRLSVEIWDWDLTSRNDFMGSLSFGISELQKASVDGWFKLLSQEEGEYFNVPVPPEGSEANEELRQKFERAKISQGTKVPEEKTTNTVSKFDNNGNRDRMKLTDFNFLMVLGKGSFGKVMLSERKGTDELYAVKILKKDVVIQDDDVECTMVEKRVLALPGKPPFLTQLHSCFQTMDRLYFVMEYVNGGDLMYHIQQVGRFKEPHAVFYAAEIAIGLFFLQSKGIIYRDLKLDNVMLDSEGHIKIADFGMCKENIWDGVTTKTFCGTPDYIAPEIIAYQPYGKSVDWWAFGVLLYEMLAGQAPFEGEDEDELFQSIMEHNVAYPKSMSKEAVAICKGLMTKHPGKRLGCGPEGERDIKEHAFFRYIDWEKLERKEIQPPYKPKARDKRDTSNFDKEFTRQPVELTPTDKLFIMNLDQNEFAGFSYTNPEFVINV
Chain of Protein kinase C delta type (Q05655 whole entry): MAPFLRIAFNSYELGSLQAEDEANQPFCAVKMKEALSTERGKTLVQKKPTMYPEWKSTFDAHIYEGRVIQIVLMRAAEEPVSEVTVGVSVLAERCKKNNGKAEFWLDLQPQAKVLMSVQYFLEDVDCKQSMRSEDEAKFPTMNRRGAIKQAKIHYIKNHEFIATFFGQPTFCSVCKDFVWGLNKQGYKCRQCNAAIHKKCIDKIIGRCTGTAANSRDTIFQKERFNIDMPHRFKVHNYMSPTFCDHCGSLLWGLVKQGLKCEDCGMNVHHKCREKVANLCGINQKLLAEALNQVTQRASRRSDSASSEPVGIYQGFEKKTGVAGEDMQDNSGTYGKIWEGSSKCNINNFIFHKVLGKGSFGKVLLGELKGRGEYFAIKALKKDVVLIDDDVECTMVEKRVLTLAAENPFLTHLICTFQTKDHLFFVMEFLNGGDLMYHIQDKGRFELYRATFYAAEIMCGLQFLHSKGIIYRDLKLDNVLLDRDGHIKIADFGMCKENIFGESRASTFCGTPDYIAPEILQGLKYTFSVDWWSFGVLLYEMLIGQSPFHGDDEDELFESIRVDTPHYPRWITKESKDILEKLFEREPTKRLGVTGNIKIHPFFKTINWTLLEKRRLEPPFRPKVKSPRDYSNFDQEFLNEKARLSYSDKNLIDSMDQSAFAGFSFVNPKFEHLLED

Regarding `COC(=O)c1cccc(O)c1Oc1c(O)cc(C(=O)O[C@H]2CCC[C@@H]2NC(=O)c2ccc(O)cc2)cc1O` [(1S,2S)-2-[(4-hydroxybenzene)amido]cyclopentyl 3,5-dihydroxy-4-[2-hydroxy-6-(methoxycarbonyl)phenoxy]benzoate], the IC50 in assay [1] worked out at 400 nM; in assay [2] it was 250 nM; in assay [3], 20 µM; in assay [4] it was 4200 nM; in assay [5], 1800 nM.
Regarding `COC(=O)c1cccc(O)c1Oc1c(O)cc(C(=O)O[C@@H]2CCC[C@H]2NC(=O)c2ccc(O)cc2)cc1O` [(1R,2R)-2-[(4-hydroxybenzene)amido]cyclopentyl 3,5-dihydroxy-4-[2-hydroxy-6-(methoxycarbonyl)phenoxy]benzoate], the IC50 in assay [1] was found to be 4 nM; in assay [2], 5 nM; in assay [3] it was 0.3 µM; in assay [4], 210 nM; in assay [5], 40 nM.
